Values after ≈ are worked out from the molar mass of the structure shown. Values joined by “and” are separate entries in the source; they are usually repeats but may differ in a detail not shown here. Equal values may be shown once. Where no end group is shown, it is not given here.
Columns and labels:
[1] = test system: porcine trypsin and proteinase K; test: Proteases stability assay; assay type: in vitro ADME, porcine; Tritirachium album; settings: 1000 µg peptide with 50 µg protease (20:1 w/w), porcine trypsin or proteinase K, PBS pH 7.4, 37 °C, 3 h; read-out activity of supernatant on E. coli and S. aureus; triplicate
Protocol: The effect of two well-studied proteases, porcine trypsin and proteinase K from Tritirachium album, on the activity of peptides was investigated as per Carmona et al.. Briefly, 1000 µg of a peptide was incubated with 50 µg of a protease (20:1 w/w) at 37 °C for 3 h in phosphate buffered saline PBS (pH 7.4). The enzyme activity was then terminated by heating (70 °C, 5 min) and the samples centrifuged at 12,000× g. The activity of the supernatant on E. coli and S. aureus was tested as above, in triplicate.

C. albicans FRR 5580 = assay type: cell-based, Candida albicans; settings: PDB, overnight; mode of three independent experiments
Protocol: The assay was carried out as per Alfred et al.. Candida albicans (FRR 5580) was grown in potato dextrose broth (PDB; Difco-BD, Bergen County, NJ, USA) overnight at 30 °C with shaking (200 rpm) until exponential phase, then adjusted to 0.5 McFarland turbidity standard (approximately 1 × 10^6 cells/mL) and diluted 1:200 with PDB to 0.5 − 2 × 10^3 cells/mL. Peptides in 25 μL volumes were mixed with 75 μL of the yeast suspensions. The controls were included as above. The plates were incubated overnight and absorbance was recorded. All the tests were conducted in triplicate.

MRSA M173525 = test: Inhibition of initial cell attachment (CV and MTT assays); assay type: cell-based, methicillin-resistant Staphylococcus aureus; settings: polystyrene, 24 h, 37 °C, triplicate
Protocol: The effects of PuroA and other selected peptides (based on their antibacterial activity) on both the initial cell attachment and 6 h preformed biofilms of MRSA on polystyrene were tested as described by Jadhav et al., at their respective 0.5 × MIC, 1 × MIC, and 2 × MIC concentrations. All tests were conducted in triplicate. For testing the inhibition of initial cell attachment, 100 μL of peptide solutions were added to the microtitre plates, then mixed with 100 μL of M173525 cell suspension (1 × 10^6 CFU/mL, cultured in tryptic soy broth medium (TSB; Oxoid) containing 1% glucose), or 100 μL of sterile MilliQ water as negative control. The plates were incubated at 37 °C for 24 h to allow cell attachment. The biofilm formation was then assessed using CV and MTT assays. […] Peptide solutions (100 μL) were then added, the plates incubated at 37 °C for 1 h and the biofilms assessed.
The assay works as an indicator of attached living and non-living biomass. Indirect assessment of cell attachment of MRSA was estimated using the modified CV assay as per Jadhav et al.. After incubations of the plates (for 24 h or 1 h, as above), the culture medium from each well was removed gently and any non-adherent bacteria removed by washing the plates five times with sterile distilled water (dH2O). The plates were air-dried, then oven-dried at 60 °C for 1 h. The biofilm cells in the wells were stained with 100 μL of 1% CV and incubated for 15 min at room temperature. Excess stain was removed by washing the plates three times with sterile dH2O. Ethanol (95%, 125 µL) was transferred to each well to de-stain the cells. The de-staining solution from each well was then transferred to a new plate and its absorbance measured at 595 nm. The percentage inhibition of biomass formation concentration was calculated as: ((OD595 nm control well without peptide − OD5 95 well with peptide)/OD595 nm control well without peptide) × 100. All tests were conducted in triplicate.
A modified methylthiazotetrazolium (MTT) (3-[4,5-dimethyl thiazol-2-yl]-2, 5-diphenyltetrazolium bromide) reduction assay was used, wherein the blue product (MTT salt reduced to formazan by dehydrogenases) is taken as a respiratory indicator of live cells. Briefly, MTT (Sigma-Aldrich, Gillingham, UK) was dissolved in PBS to 5 mg/mL. After incubations of plates (for 24 h or 1 h, as above), the culture medium was gently removed and the plates air-dried. PBS (100 μL) and MTT (5 µL, 5 mg/mL) were added to each well and the plates incubated for 3 h at 37 °C. The insoluble purple product was dissolved in 100 µL of dimethyl sulphoxide (DMSO, Sigma-Aldrich, Gillingham, UK) and the absorbance measured at 570 nm. The % inhibition of metabolic activity was calculated as: ((OD570 nm control well without peptide − OD570 nm well with peptide)/OD570 nm control well without peptide) × 100. All tests were conducted in triplicate.

HeLa cells = assay type: cell-based, human; settings: MTT, 24 h, peptide up to 250 µg/mL; concentration causing 50% cell growth inhibition; mean of triplicate assays
Protocol: Cytotoxicity to human cervical carcinoma HeLa cells and mouse fibroblastic NIH-3T3 cells was determined using the MTT assay as per Scudiero et al. with minor modifications. The cells were maintained in Dulbecco’s Modified Eagle Medium (DMEM) with 10% foetal bovine serum (FBS) and 1% penicillin G in a humidified incubator (Heraeus Hera Cell incubator) at 37 °C with 5% CO2. They were seeded in 96-well microtiter plates at 1 × 10^4 cells/well and allowed to adhere for 24 h in the incubator. The medium was removed, and adherent cells were washed with PBS. Fresh media containing serially diluted peptides in PBS (final concentrations 4 to 250 µg/mL) were added and the cells incubated for 24 h. Cells without peptides were used as negative controls. Following incubations, the medium was removed, and adherent cells were washed with PBS. 150 µL of MTT (diluted to 0.33 mg/mL in DMEM) and the plates incubated for 3 h. The precipitated formazan was dissolved in 100 µL of DMSO and its absorbance measured at 570 nm. Cell viability was determined as: (OD570 nm peptide treated cells/(OD570 nm untreated cells) × 100. Positive cytotoxicity was defined as peptide concentration that causes 50% growth inhibition in a cell line (IC50). All tests were carried out in triplicate.

## RKRWWRWWKWWKR-NH2 [Peptide P1]
[1]
  Protease Stability: Unstable
C. albicans FRR 5580
  MIC C. albicans FRR 5580: 64 µg/mL
MRSA M173525; 0.5 × MIC
  Percentage of Inhibition of Initial MRSA Cells Attachment, CV: 72 ± 3.1%
  Percentage of Inhibition of Initial MRSA Cells Attachment, MTT: 92 ± 3.0%
MRSA M173525; 1 × MIC
  Percentage of Inhibition of Initial MRSA Cells Attachment, CV: 75 ± 1.9%
  Percentage of Inhibition of Initial MRSA Cells Attachment, MTT: 95 ± 2.3%
MRSA M173525; 2 × MIC
  Percentage of Inhibition of Initial MRSA Cells Attachment, CV: 78 ± 6.1%
  Percentage of Inhibition of Initial MRSA Cells Attachment, MTT: 95 ± 2.5%
HeLa cells
  IC50 HeLa: 32 µg/mL

## WRWWKWW-NH2 [Peptide W7]
[1]
  Protease Stability: Unstable
C. albicans FRR 5580
  MIC C. albicans FRR 5580: 64 µg/mL
MRSA M173525; 0.5 × MIC
  Percentage of Inhibition of Initial MRSA Cells Attachment, CV: 69 ± 3.6%
  Percentage of Inhibition of Initial MRSA Cells Attachment, MTT: 90 ± 2.9%
MRSA M173525; 1 × MIC
  Percentage of Inhibition of Initial MRSA Cells Attachment, CV: 75 ± 5.0%
  Percentage of Inhibition of Initial MRSA Cells Attachment, MTT: 95 ± 4.0%
MRSA M173525; 2 × MIC
  Percentage of Inhibition of Initial MRSA Cells Attachment, CV: 76 ± 4.8%
  Percentage of Inhibition of Initial MRSA Cells Attachment, MTT: 96 ± 1.5%
HeLa cells
  IC50 HeLa: 250 µg/mL

## WWRWWKWW-NH2 [WW]
[1]
  Protease Stability: Unstable
C. albicans FRR 5580
  MIC C. albicans FRR 5580: 64 µg/mL
MRSA M173525; 0.5 × MIC
  Percentage of Inhibition of Initial MRSA Cells Attachment, CV: 71.5 ± 3.5%
  Percentage of Inhibition of Initial MRSA Cells Attachment, MTT: 90 ± 2.0%
MRSA M173525; 1 × MIC
  Percentage of Inhibition of Initial MRSA Cells Attachment, CV: 73 ± 6.2%
  Percentage of Inhibition of Initial MRSA Cells Attachment, MTT: 95 ± 3.1%
MRSA M173525; 2 × MIC
  Percentage of Inhibition of Initial MRSA Cells Attachment, CV: 79 ± 7.5%
  Percentage of Inhibition of Initial MRSA Cells Attachment, MTT: 96 ± 0.5%
HeLa cells
  IC50 HeLa: 250 µg/mL

## CC(C)[C@H](NC(=O)[C@@H]1CCCN1C(=O)[C@@H](N)Cc1ccccc1)C(=O)N[C@H](C(=O)N[C@@H](Cc1c[nH]c2ccccc12)C(=O)N[C@@H](CCCNC(=N)N)C(=O)N[C@@H](Cc1c[nH]c2ccccc12)C(=O)N[C@@H](Cc1c[nH]c2ccccc12)C(=O)N[C@@H](CCCCN)C(=O)N[C@@H](Cc1c[nH]c2ccccc12)C(=O)N[C@@H](Cc1c[nH]c2ccccc12)C(=O)N[C@@H](CCCCN)C(=O)NCC(N)=O)[C@@H](C)O [PuroA]
[1]
  Protease Stability: Unstable
C. albicans FRR 5580
  MIC C. albicans FRR 5580: 125 µg/mL (≈ 67.1 µM)
MRSA M173525; 0.5 × MIC
  Percentage of Inhibition of Initial MRSA Cells Attachment, CV: 70 ± 5.6%
  Percentage of Inhibition of Initial MRSA Cells Attachment, MTT: 92 ± 1.5%
MRSA M173525; 1 × MIC
  Percentage of Inhibition of Initial MRSA Cells Attachment, CV: 75 ± 4.0%
  Percentage of Inhibition of Initial MRSA Cells Attachment, MTT: 95 ± 1.1%
MRSA M173525; 2 × MIC
  Percentage of Inhibition of Initial MRSA Cells Attachment, CV: 79 ± 4.5%
  Percentage of Inhibition of Initial MRSA Cells Attachment, MTT: 95% and 95 ± 0.5%
HeLa cells
  IC50 HeLa: >250 µg/mL
